Results as given in patent US10517867B2, “Posaconazole derivative, pharmaceutical composition and use thereof” (priority 2016, dated 2019).
Where two headings read alike, the source gives them in different places.

Key:
[1] = In vitro metabolic stability in human plasma; assay type: in vitro ADME; settings: human, plasma, 37° C., 10 μM compound, read-out: Human plasma T1/2
In short: (§1)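 Human or rat plasma, preincubated 5 min at 37 °C, or intestinal S9 at 37 °C, spiked from 1 mM stock; triplicates sampled at 1, 2, 5, 15 and 30 min into cold internal standard. HPLC quantitation; half-life by non-compartmental analysis.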

[2] = system: Candida albicans ATCC10231; assay: Systemic fungal infection in mice, intravenous administration; assay type: in vivo, ICR mice
[3] = In vitro metabolic stability in rat intestine S9; assay type: in vitro ADME; settings: rat, intestinal S9, pH 7.4; 37° C., 10 μM compound, 1 mg/mL S9, NADPH regeneration system; read-out: Rat intestine S9 T1/2
In short: as §1

[4] = In vitro metabolic stability in human intestine S9; assay type: in vitro ADME; settings: human, intestinal S9; 37° C., 10 μM compound, 1 mg/mL S9, NADPH regeneration system; read-out: Human intestine S9 T1/2
In short: as §1

[5] = system: Aspergillus Fumigutus (AF) strains; assay: Aspergillus fumigatus keratitis in rats, intravenous administration; settings: 10 mg/kg tail vein once daily for 5 days; mean ± SD of 10 rats
[6] = In vitro metabolic stability in rat plasma; assay type: in vitro ADME; settings: rat, plasma, 37° C., 10 μM compound, read-out: Rat plasma T1/2
In short: as §1

[7] = Determination of solubility in deionized water (HPLC, external standard); settings: 25 °C, water, thermodynamic from solid
[8] = Solid stability test (stability chamber, HPLC total impurity); assay type: physicochemical
[9] = system: Candida albicans ATCC10231; assay: Systemic fungal infection in mice, intragastric administration; assay type: in vivo, ICR mice; settings: Candida albicans, ATCC10231, po
[10] = system: Aspergillus fumigatus AF293; assay: Lung Aspergillus fumigatus infection in immunosuppressed mice, intravenous administration; settings: for responders at 20 mg/kg: Aspergillus fumigatus, AF293, in Mus musculus, iv
Description: ICR male mice were injected intraperitoneally with cyclophosphamide 150 mg/kg and injected subcutaneously with dexamethasone 150 mg/kg for 10 consecutive days. At the same time, the blood was taken to measure the changes of peripheral white blood cells and neutrophils, and mice with neutrophils consistently lower than 100/μl were selected as successfully immunosuppressed mice. Immediately after the last injection, the mice were anesthetized with ethyl ether, and mice were transferred from the initial state of excitement to inhibition. After their bodies were relaxed, the mice were immediately taken. Left hand was used to grasp the mouse to make it stand upright, the middle finger pressed the mouth so that it could breath only with the nose, and the ring finger gently pressed the abdomen to move the diaphragm muscle upward. 30 μl of conidia suspension (Aspergillus fumigatus AF293, 3×10^6 conidia) was sent to the nostrils of the anesthetized mice by a micropipette to allow spontaneous inhalation. After the mouse returned to normal breathing, it was returned to the cage. […] The death of the mice was observed and the survival time was recorded. Seven days later, the mice were sacrificed and their lung tissues were taken to observe the fungal loads of Aspergillus fumigatus in the lungs of the mice.

[11] = system: Candida albicans ATCC10231; assay: Candida albicans vaginitis in mice, intragastric administration; assay type: in vivo, KM mice; settings: logarithm of the CFU values, mean ± SD of 20 mice, 20 mg/kg intragastric once a day

For `CC[C@@H]([C@H](C)O)n1ncn(-c2ccc(N3CCN(c4ccc(OC[C@@H]5CO[C@@](Cn6c[n+](C(C)OC(=O)N(C)c7ncccc7COC(=O)CN)cn6)(c6ccc(F)cc6F)C5)cc4)CC3)cc2)c1=O` (stereo partly drawn) [ST0002], the half-life at 10 µM [1] was 0.78 ± 0.15 min, the responders at 20 mg/kg ([2]; 24 h, read-out: survival rate of mice, day 1) was 100% and the responders at 20 mg/kg ([2]; 48 h, read-out: survival rate of mice, day 2) was 100%. For the same compound, the responders at 20 mg/kg ([2]; 72 h, read-out: survival rate of mice, day 3) was 100%, the responders at 20 mg/kg ([2]; 96 h, read-out: survival rate of mice, day 4) was 100% and the responders at 20 mg/kg ([2]; 120 h, read-out: survival rate of mice, day 5) was 100%. The responders at 20 mg/kg ([2]; 144 h, read-out: survival rate of mice, day 6) was 90%, the responders at 20 mg/kg ([2]; 168 h, read-out: survival rate of mice, day 7) was 90% and the half-life at 10 µM [3] was 18.5 ± 4.56 min. The half-life at 10 µM [4] was 14.9 ± 3.56 min, the “Amount of active fungi in cornea at day 7” value [5] was 2.37 ± 0.49 10^3 CFU/ml and the half-life at 10 µM [6] was 1.12 ± 0.35 min. For the same compound, the solubility at 30 min [7] was 30.8 mg/mL, the “Total impurity increment in 30 days” value [8] was 0.63% and the responders at 20 mg/kg ([9]; 24 h, read-out: survival rate of mice, day 1, 20 mg/kg intragastric once daily for 5 days, day 1) was 100%. For the same compound, the responders at 20 mg/kg ([9]; 48 h, read-out: survival rate of mice, day 2, 20 mg/kg intragastric once daily for 5 days, day 2) was 100%, the responders at 20 mg/kg ([9]; 72 h, read-out: survival rate of mice, day 3, 20 mg/kg intragastric once daily for 5 days, day 3) was 90% and the responders at 20 mg/kg ([9]; 96 h, read-out: survival rate of mice, day 4, 20 mg/kg intragastric once daily for 5 days, day 4) was 80%. For the same compound, the responders at 20 mg/kg ([9]; 120 h, read-out: survival rate of mice, day 5, 20 mg/kg intragastric once daily for 5 days, day 5) was 80%, the responders at 20 mg/kg ([9]; 144 h, read-out: survival rate of mice, day 6, 20 mg/kg intragastric once daily for 5 days, day 6) was 70% and the responders at 20 mg/kg ([9]; 168 h, read-out: survival rate of mice, day 7, 20 mg/kg intragastric once daily for 5 days, day 7) was 70%. For the same compound, the responders at 20 mg/kg ([10]; 24 h, read-out: survival rate of mice, day 1, 20 mg/kg tail vein once daily for 5 days, day 1) was 100%, the responders at 20 mg/kg ([10]; 48 h, read-out: survival rate of mice, day 2, 20 mg/kg tail vein once daily for 5 days, day 2) was 100% and the responders at 20 mg/kg ([10]; 72 h, read-out: survival rate of mice, day 3, 20 mg/kg tail vein once daily for 5 days, day 3) was 100%. The responders at 20 mg/kg ([10]; 96 h, read-out: survival rate of mice, day 4, 20 mg/kg tail vein once daily for 5 days, day 4) was 100%, the responders at 20 mg/kg ([10]; 120 h, read-out: survival rate of mice, day 5, 20 mg/kg tail vein once daily for 5 days, day 5) was 90% and the responders at 20 mg/kg ([10]; 144 h, read-out: survival rate of mice, day 6, 20 mg/kg tail vein once daily for 5 days, day 6) was 90%. The responders at 20 mg/kg ([10]; 168 h, read-out: survival rate of mice, day 7, 20 mg/kg tail vein once daily for 5 days, day 7) was 80%, the lung fungal load ([10]; mouse lung tissue, seven days later, 20 mg/kg tail vein once daily for 5 days, mean ± SD) was 1.89 ± 0.22 10^4 CFU/ml and the “vaginal fungal load of mice, day 3” value ([11]; day 3) was 4.18 ± 0.22. For the same compound, the “vaginal fungal load of mice, day 5” value ([11]; day 5) was 4.35 ± 0.41, the “vaginal fungal load of mice, day 7” value ([11]; day 7) was 3.97 ± 0.47 and the “vaginal fungal load of mice, day 11” value ([11]; day 11) was 3.05 ± 0.27.
